Data as given in patent US20090142363A1, “CYTOTOXIC T-CELL EPITOPE PEPTIDE AND USE THEREOF” (priority 2005, published 2009).
No end group written: not given here.

Assays:
[1] = test system: PBMCs of healthy adults reactive to the anti-HLA-A*24 antibody; assay: Induction of specific CTLs from PBMCs, method for quantifying cells producing intracellular IFNγ; format: cell-based, human; design: key to specific CTL induction, cytokine quantification method: ∘: “open circle” indicates that the use of a candidate peptide enabled specific CTLs to be induced; x: “cross” indicates that specific CTLs was unable to be induced; conditions: for peptide-specific cytokine production in PBMCs derived from ten people with HLA-A*24 molecule: summary of Table 2; for CD8-positive, IFNγ-positive cells in UR: HIV peptides added for restimulation as negative control
Method: This induction method induces CTLs by adding peptides to culture media of PBMCs. Peptides are presented on antigen-presenting cells present among PBMCs, such as dendritic cells, B cells, macrophages, and certain types of T cells, whereby CTL precursor cells in PBMCs are stimulated to proliferate.
Peripheral blood collected from healthy adults that were reactive to the anti-HLA-A*24 antibody was centrifuged at 3,000 rpm for 5 to 10 minutes. The resulting supernatant plasma was collected. The non-plasma portion was processed according to a conventional method to isolate PBMCs. The characteristic of the present method is the addition of several % of plasma to an induction medium. In the present invention, a favorable result was obtained by adding 5% plasma. The medium is prepared by adding appropriate additives and antibiotics to a medium commonly used for cell culture. The CTL induction medium used in the present invention was RPMI1640 Hepes modify (Sigam) supplemented with 2-mercapotethanol, L-glutamine, and the antibiotics streptomycin and penicillin. In addition to these, insulin, transferrin, selenious acid, pyruvic acid, human serum albumin, solution of non-essential amino acids, and the like may be added. 1 to 3×10^6 PBMCs were suspended in 1 to 2.5 ml of the culture medium. A candidate peptide was added to the cells at a concentration of 1 to 20 μg/ml. The concentration of peptide can be altered depending on the solubility of the peptide. The peptide was added at 10 μg/ml. After two days, IL-2 was added at a final concentration of 20 to 100 U/ml. Round-bottomed culture dishes that allow the exchange of carbon dioxide gas are preferably used to co-culture PBMCs with peptides. In the context of the present invention, 14-ml round-bottomed polypropylene tubes (Becton Dikinson) or 96-well U-bottomed cell culture microtest plates (Becton Dikinson) were used. The adenovirus-specific CTLs were confirmed after about two and four weeks of culture. The cells were stimulated again with the peptide at 10 μg/ml after about two weeks of culture. When the induction of adenovirus-specific CTLs was confirmed, the cells were further stimulated with peptide-pulsed antigen-presenting cells to establish CTL lines.
Approximately 1/10 to all of the cells induced by the above-described method were transferred into 96-well U-bottomed cell culture microtest plates, and the peptide used for the induction was added thereto at a final concentration of 0.01 to 0.05 μg/ml. Then, an intracellular protein transport inhibitor (for example, brefeldin A, monensin, or such) was added, and the cells were cultured in a 5% CO2 incubator at 37° C. for 5 to 16 hours. After culture, the cells were washed, and phycoerythrin (PE)-labeled MHC-tetramer reagent and phycoerythrin-Cy5(PC5)-labeled CD8 antibody (Beckman Coulter) were added thereto. The resulting mixture was allowed to stand at room temperature for 15 to 30 minutes. After washing, the cells were fixed with 4% formaldehyde at 4° C. for 15 minutes and washed with an excess amount of washing solution. After membrane permeabilization treatment with 0.1% saponin, an FITC-labeled anti-IFNγ antibody (Beckman Coulter) was added, and reacted at room temperature for 15 to 30 minutes. After washing, the proportion of IFNγ-positive cells in T cells or MHC-tetramer reagent-positive cells was determined using a flow cytometer.
PBMCs derived from ten people with HLA-A*24 molecule were tested using 10 types of peptides. […] Thus, these six types of candidate epitope peptides serve as adenovirus-specific CTL epitope peptides. Since the adenovirus-specific CTL epitope peptides have the HLA-A*24-binding motif, they are likely to be HLA-A*2402-restricted epitope peptides, which are carried by 60% or more of the Japanese people. In the context of the results described above, MHC-tetramer reagents were synthesized using five types of epitope peptides, and their utility was tested.

[2] = test system: peripheral blood / PBMCs / peptide-induced CTL lines of HLA-A*24 donors; assay: Staining of peripheral blood, PBMCs or peptide-induced CTL lines with MHC-tetramer reagents; format: cell-based, human; conditions: for profile of tetramer-positive cells: donor ID*24-12, peptide-induced cells
Method: MBL Co. where the present inventors are affiliated with has acquired exclusive patent licensing rights in Japan for MHC-tetramer reagents (U.S. Pat. No. 5,635,363; French Application No. FR9911133; and U.S. Pat. Nos. 5,723,584, 5,874,239, 5,932,433, and 6,265,552) from Beckman Coulter Co. Based on the patents, PE-labeled MHC-tetramer reagents were prepared using adenovirus-specific CTL epitope peptides and HLA-A*2402 molecules.
Adenovirus-specific CTLs quantification was carried out using MHC-tetramer reagents that was prepared using CTL epitope peptides of the present invention, with peripheral blood, PBMCs isolated from peripheral blood, CTL lines induced using CTL epitope peptides as samples. Examples of quantification using PE-labeled MHC-tetramer reagents are described below. Labelling dyes may be used in an appropriate combination depending on the type of flow cytometer to be used, and is not limited to the examples described below.
Ten μl of a PE-labeled MHC-tetramer reagent, 20 μl of an FITC-labeled antibody for T cell (for example, CD8, CD4, or CD3), and such were added to 200 μl of collected peripheral blood. A CD45 antibody labeled with PC5 or such may also be added to eliminate nonspecific fluorescence due to contaminated erythrocytes. After gentle mixing, the mixture was allowed to stand at room temperature for 30 minutes. OptiLyse B was added, and erythrolysis and fixation was carried out according to the manufacturer's protocol. Two ml of PBS was added, stirred, and the cells were centrifuged at 400×g for 5 minutes. After the supernatant was removed by aspiration, the cells were resuspended in 500 μl of PBS and analyzed using a flow cytometer within 24 hours.
Ten μl of a PE-labeled MHC-tetramer reagent, 20 μl of an FITC-labeled T cell surface antibody (for example, CD8, CD4, or CD3), and such were added to an appropriate amount of PBMCs (10^5 to 10^6 cells) or a CTL line induced by use of CTL epitope peptides. A CD45 antibody labeled with PC5 or such may also be added to eliminate nonspecific fluorescence due to contaminated erythrocytes. After gentle mixing, the cells were allowed to stand at room temperature for 30 minutes. Three ml of PBS was added, stirred, and the cells were centrifuged at 400×g for 5 minutes. After the supernatant was removed by aspiration, the cells were resuspended in 500 μl of PBS. When a CTL line is used, 7-AAD Viability Dye (Non-viable cell detection reagent; MBL Co.) may be added to eliminate nonspecific fluorescence caused by non-viable cells. The cells were analyzed using a flow cytometer within 24 hours.
The results of staining obtained using the five types of MHC-tetramer reagents used to prepare the peptide-induced CTL lines are shown in FIG. 5.

[3] = PBMCs from donor ID*24-14 after 24 days of stimulation with LYA

| Substance | specific CTL induction, cytokine quantification method ([1]; donor ID *24-1) | specific CTL induction, cytokine quantification method ([1]; donor ID *24-2) | specific CTL induction, cytokine quantification method ([1]; donor ID *24-3) | specific CTL induction, cytokine quantification method ([1]; donor ID *24-5) | specific CTL induction, cytokine quantification method ([1]; donor ID *24-8) | specific CTL induction, cytokine quantification method ([1]; donor ID *24-10) | specific CTL induction, cytokine quantification method ([1]; donor ID *24-11) | specific CTL induction, cytokine quantification method ([1]; donor ID *24-12) | specific CTL induction, cytokine quantification method ([1]; donor ID *24-13) | specific CTL induction, cytokine quantification method ([1]; donor ID *24-14) | other results |
| --- | --- | --- | --- | --- | --- | --- | --- | --- | --- | --- | --- |
| DYLSAANML | ∘ | ∘ | x | x | x | ∘ | x | ∘ | x | x | CD8-positive, IFNγ-positive (producing) cells in UR ([1]; donor *24-12, restimulation with the same peptide as used in the induction, % in PBMCs): 0.49%; specific CTL induction confirmed by CD8-positive, IFNγ-positive cells versus HIV peptide ([1]; donor ID*24-12, FIG. 3e-h): specific CTL induction was confirmed; peptide-specific cytokine production in PBMCs derived from ten people with HLA-A*24 molecule [1]: induce cytokine production in a peptide-specific manner; number of persons with peptide-specific IFNγ production / CTL induction ([1]; ten persons tested): four of the ten persons |
| GYKDRMYSF | x | x | x | x | ∘ | x | x | x | x | x | specific CTL induction confirmed by CD8-positive, IFNγ-positive cells versus HIV peptide ([1]; donor ID*24-8, FIG. 3a-d): induced specific CTLs; peptide-specific cytokine production in PBMCs derived from ten people with HLA-A*24 molecule [1]: induce cytokine production in a peptide-specific manner |
| HLA-A*2402 DYLSAANML (Seq Id No: 1) Tetramer Reagent [DYL-Tet] | – | – | – | – | – | – | – | – | – | – | profile of tetramer-positive cells [2]: no relevant profile |
| HLA-A*2402 LYANSAHAL (Seq Id No: 2) Tetramer Reagent [LYA-Tet] | – | – | – | – | – | – | – | – | – | – | CD3-positive, LYA-Tet-positive cells [2, 3]: 1.13%; CD4-positive, LYA-Tet-positive cells [2, 3]: 0.09%; CD8-positive, LYA-Tet-positive cells [2, 3]: 0.18%; population of CD8-negative, tetramer reagent-positive cells in the UL ([2]; peptide-induced CTL lines, FIG. 5, VYS-Tet: donor ID*24-1, *24-3, *24-11, *24-12, *24-14): detected |
| HLA-A*2402 LYSNVALYL (Seq Id No: 5) Tetramer Reagent [LYS-Tet] | – | – | – | – | – | – | – | – | – | – | profile of tetramer-positive cells [2]: no relevant profile |
| KYTPSNVTL | x | x | x | x | x | x | x | x | x | x | – |
| NYIGFRDNF | x | x | x | x | x | x | x | x | x | x | – |
| NYNIGYQGF | x | x | x | x | x | x | x | x | x | x | – |
| RYLRDQQLL [HIV peptide, reference compound] | – | – | – | – | – | – | – | – | – | – | CD8-positive, IFNγ-positive cells in UR ([1]; donor *24-8): 0.62%; CD8-positive, IFNγ-positive cells in UR ([1]; donor *24-12): 0.18% |
| SYQLLLDSL | x | x | x | x | x | x | x | x | x | x | – |
